Results as given in patent US12559463B2, “Crystalline forms of a JAK2 inhibitor” (Impact Biomedicines, Inc., priority 2019, dated 2026).
Where two headings read alike, the source gives them in different places.

Key:
[1] = additive used in the salt screen, cited from earlier work
[2] = pKa of basic sites / additives; type: physicochemical; details: two basic sites for salt formation
Source text: Fifty-three counterions and stoichiometric combinations were selected. Table 1 provides a summary of the additives, pKa values, method of dosing and equivalents dosed for each additive.

SMILES	pKa ([1]; first pKa value)	pKa ([1]; second pKa value)	pKa [2]	pKa ([2]; read-out: pKa)
O=C(O)C(O)c1ccccc1 (racemic) [DL-Mandelic acid]	3.4	–	–	–
CC1(C)C2CCC1(CS(=O)(=O)O)C(=O)C2 (stereo not shown) [Camphor-10-sulfonic acid]	−2.2	–	–	–
CC1(C(=O)O)CCC(C(=O)O)C1(C)C (stereo not shown) [Camphoric acid]	4.7	5.8	–	–
Cc1cnc(Nc2ccc(OCCN3CCCC3)cc2)nc1Nc1cccc(S(=O)(=O)NC(C)(C)C)c1 [Compound 1, N-tert-butyl-3-[(5-methyl-2-{[4-(2-pyrrolidin-1-ylethoxy)phenyl]amino}pyrimidin-4-yl)amino]benzenesulfonamide]	–	–	6.4	9.3
O=C(O)[C@@H](O)c1ccccc1 [L-Mandelic acid]	3.4	–	–	–
